“Also recorded” adds a separate entry of the source. Read-outs that look alike come from different tables or passages of the source.

The nature of series [1]: In vivo pharmacokinetic study in Beagle dogs. The note with it: male Beagle dogs; for AUC(0-t): read-out: AUC0-24h; for time-course of mean plasma concentration in comparison with API: oral capsule, FIG. 10. Here is the method: In vivo pharmacokinetic study was carried out in Beagle dogs.
Male Beagle dogs were given single oral dose of the test articles by gelatin capsule formulation at a dose of 5 mg/kg. The actual weight of the test articles in the gelatin capsule to be administered to each animal was calculated based on the body weight measured just before the administration.
Following dosing, blood was collected from the external jugular vein of animals at 0, 0.25, 0.5, 1, 2, 4, 6, 8, 12, 24, 48, 72, 96, 120, 144, 168, […], 288, and 360 hour after administration. Approximately 1 mL of blood will be collected into tubes containing heparin-Na.
On the day of administration, food was given to the animals after 6-hour blood sampling.
The drug concentrations in dog plasma were determined with the validated bioanalytical assay procedures. PK parameters were determined with non-compartmental analysis.

Series [2] is described as follows: Intrinsic dissolution experiments. The format is physicochemical. To be noted: for intrinsic dissolution rate, comparison in words: pH 6.8 buffer and water; for time to plateau / complete dissolution of tablet: pH 6.8 buffer (neutral media). Here is the method:
Intrinsic dissolution experiments were performed on the free acid, the meglumine salt, and the potassium salt. The measurements were carried out in pH 6.8 (0.05 M) phosphate buffer and water.
The press used for tablet preparation for intrinsic dissolution rate measurements was a mini-IDR compression system (pION/Heath Scientific). Approximately 11 mg of material was pressed in the cylindrical hole of a passivated stainless steel die, to a uniform, flat surface, with an exposed area of 0.072 cm^2. The pressure applied was approximately 50 bar for 3-5 min. The sample die was inserted in a cylindrical Teflon rotating disk carrier containing an embedded magnetic stirring bar at its base. The die/stirrer assembly was placed in a flat bottomed glass vial, ready for dissolution analysis.
The dissolution rate was measured in 20 ml of solvent (medium) and the path length of the UV meter was 2 mm. Applied stirring speed during measurement was 100 rpm. Measurements were performed at 20° C.

The nature of series [3]: Quantitative Solubility Assessment. The format is physicochemical. To be noted: pH 6.8 phosphate buffer (0.05 M) and water, thermodynamic from solid; neutral to basic environment. The procedure:
Quantitative Solubility Assessment were performed on the free acid, the meglumine salt, and the potassium salt. The measurements were carried out in pH 6.8 phosphate buffer (0.05M) and water.
A standard 1.8 ml screw cap vial was charged with the material, each solvent (medium) and a magnetic stirring bar. The vials were subsequently closed and equilibrated at the ambient temperature for 24 h while stirring.
The liquid part was retrieved with a syringe and filtrated (0.5 micron filter); the isolated mother liquors were diluted to two dilutions selected according to the calibration curve. Quantities of the API in the diluted solutions were determined via HPLC analysis (DAD). The calibration curve was obtained from two independently prepared stock solutions of the API in 50% water/50% acetonitrile.

Series [4] is described as follows: Solid-state stability at 40° C. and 75% relative humidity. In kind it is physicochemical. The note with it: 75% RH, 1 to 4 weeks. The procedure: The solid-state stabilities were assessed as follows: HPLC vials, containing approximately 5 mg of material, were placed in the climate chamber at 40° C. and 75% relative humidity. The samples were analyzed by XRPD and HPLC (both purity and chiral) at time points of 1, 2, 3 and 4 weeks. For each week a separate vial was prepared.

Series [5] in a line: Variable temperature XRPD (VT-XRPD). The format is physicochemical. To be noted: 25° C. to 160° C. and back to 25° C. Here is the method:
(§1) For variable humidity and temperature experiment the ANSYCO HT chamber was used. The material was placed on a fixed sample holder that was mounted inside the chamber. The humidity was applied locally and varied from 10 to 80% (dew point). The temperature variation rate was 10° C./min.
Variable temperature XRPD (VT-XRPD) measurements of the meglumine salt were performed under the temperature of 25° C. to 160° C. (heating) and thereafter decreased to 25° C. (cooling).

A short description of series [6]: DVS analysis (moisture sorption). The format is physicochemical. The procedure: Moisture sorption isotherms of small samples were obtained using a DVS-1 system from Surface Measurement Systems (London, UK) with an accuracy of 0.1 μg. The relative humidity cycled between 45 and 95% RH (sorption), 95 to 0% RH (desorption) and 0 to 45% (sorption) at a constant temperature of 25° C. with a hold time of 60 minutes per step (10% relative humidity step). At the end of the DVS experiment the sample was measured by XRPD.
The XRPD pattern of the sample after DVS measurement was not changed.

The nature of series [7]: Slurry experiments (physical stability in solvents). The note with it: ethanol, ethyl acetate, n-heptane; 25° C.; 2 weeks. The format is physicochemical. Here is the method:
The slurry experiments of the meglumine salt were performed; the materials (15-30 mg) were weighed into 1.8 ml vials, charged with a stirring bar and the solvent (ethanol, ethyl acetate and n-heptane) and the slurries were placed at 25° C. under stirring. After two weeks, the slurries were subject to centrifugation and the liquid was removed with a pipette. The solids were sampled “wet” for XRPD. Subsequently the remaining solids dried under 200 mbar at room temperature for 5 days and all solids were analyzed as “dry” by XRPD.

Series [8] can be described thus: Variable humidity XRPD (VH-XRPD). The format is physicochemical. The note with it: 60 to 80% RH, 80 to 10% RH, 10 to 50% RH. The procedure: as §1
Variable humidity XRPD (VH-XRPD) measurements of the meglumine salt were performed under the humidity of 60 to 80% RH (1st sorption), 80 to 10% RH (desorption) and 10 to 50% (2nd sorption).

Setting [9] is: dog, plasma, single oral dose 5 mg/kg, gelatin capsule.
Setting [10] is: dog, plasma, single oral dose 5 mg/kg, gelatin capsule, read-out: Cmax.
Where [11] appears, read: pH 6.8 (0.05 M) phosphate buffer, 20° C., 100 rpm.
The mark [12] stands for this setting: single oral dose 5 mg/kg, gelatin capsule.

As usually defined, the Cmax is the maximum level reached in the sampled fluid or tissue. In the case of `CC(C)(C)c1cc2c(cc1Cl)C=C(C(=O)O)[C@@H](C(F)(F)F)O2` [Compound A, (S)-6-chloro-7-(1,1-dimethylethyl)-2-trifluoromethyl-2H-1-benzopyran-3-carboxylic acid], the AUC(0-t) in series [1] (setting [9]) worked out at 287 µg·h/mL. In addition, the Cmax in series [1] (setting [10]) was 19700 ng/mL. Moreover, the “concentration after one hour” value is 27000 ng/mL in series [2] (setting [11]) and “about 1 μg/ml” in series [2] (water, 20° C., 100 rpm). Further, the “intrinsic dissolution rate, comparison in words” value (from here on “intrinsic dissolution rate”) in series [2] is given as “very limited dissolution”.

As usually defined, the solubility is the dissolved amount per volume that the medium holds. High values mean much dissolved substance, low ones little dissolved substance. In series [3], `CC(C)(C)c1cc2c(cc1Cl)C=C(C(=O)[O-])[C@@H](C(F)(F)F)O2.[K+]` [potassium salt, (S)-6-chloro-7-(1,1-dimethylethyl)-2-trifluoromethyl-2H-1-benzopyran-3-carboxylic acid potassium salt] registered a solubility at 24 h greater than 120 mg/mL. Besides, in series [4], the “chemical purity after solid-state stability test” value was no less than 99.9% and the “enantiomeric purity after solid-state stability test” value is recorded as no less than 99.9%. In addition, the AUC(0-t) in series [1] (setting [9]) stood at 436 µg·h/mL. In addition, the maximum concentration (Cmax) in series [1] (setting [10]) was determined as 28200 ng/mL. Further, the “time-course of mean plasma concentration in comparison with API” value in series [1] is given as “rapidly increased”. For the same compound, the “plateau concentration (dissolution of complete tablet)” value in series [2] (setting [11]) worked out at 370 µg/mL. For the same compound, in series [2] (20° C.), the “time to plateau / complete dissolution of tablet” value was no more than 15 min. Moreover, the “intrinsic dissolution rate” value in series [2] (potassium salt) is “much better than the free acid; also recorded: dissolved the fastest in all cases”. In series [2] (water, 20° C.), the “time to complete dissolution of tablet” value was no more than 5 min. Also, the “final concentration (complete tablet dissolved)” value in series [2] (water, 20° C., 100 rpm) was 400 µg/mL.

For the compound “(S)-6-chloro-7-(1,1-dimethylethyl)-2-trifluoromethyl-2H-1-benzopyran-3-carboxylic acid meglumine salt”, the “crystal form through heating-cooling cycle (VT-XRPD)” value in series [5] is “remained unchanged”. This compound also had a maximum water uptake in series [6] (DVS, at 95% RH, 25° C.) of 2.0%. In addition, the “XRPD pattern of the sample after DVS measurement” value in series [6] (after DVS cycle) was “not changed”. The “physical stability of wet and dry solids in slurry (XRPD)” value in series [7] was “physically stable”. Also, the “physical and chemical stability (XRPD, HPLC)” value in series [4] was “remained physically and chemically stable”. In addition, the “crystal form through sorption-desorption-sorption cycle (VH-XRPD)” value in series [8] is “remained unchanged”. Besides, the “time-course of mean plasma concentration in comparison with API” value in series [1] is “rapidly increased”. In series [1] (setting [12]), the AUC0-24h is listed as 381,000 ng · hr/mL and the peak concentration (Cmax) was 28,200 ng/mL. Further, the “plateau concentration (dissolution of complete tablet)” value in series [2] (setting [11]) is listed as “about 250 μg/ml”. Moreover, the “time to plateau / complete dissolution of tablet” value in series [2] (20° C.) is recorded as 45 min. Moreover, the “intrinsic dissolution rate” value in series [2] is “much better than the free acid”. Moreover, in series [2] (water, 20° C., 100 rpm), the “concentration reached in the first 9 min” value is listed as “about 210 μg/ml” and the “final concentration (complete tablet dissolved)” value came to 250 µg/mL.

Source of the values: patent publication US9447066B2, “Salts and crystal forms” (AskAt Inc., priority 2012, dated 2016).
